Experimental data: a compilation of properties of binary mixtures (doi:10.1016/j.jct.2009.06.023)

Assay: xn = mol fraction of the nth substance listed
Conditions: 101 kPa

CCCC[n+]1ccn(C)c1.O=[N+]([O-])[O-] + CCO
viscosity [mPa·s]
Conditions	x2 = 0.11	x2 = 0.254	x2 = 0.352	x2 = 0.447	x2 = 0.556	x2 = 0.663	x2 = 0.748	x2 = 0.852
283.15 K	260	120.4	66	–	21.24	10.88	7.45	3.9
288.15 K	190	90.7	–	28.43	17.96	–	–	3.47
293.15 K	139.3	–	41.09	23.18	15.21	8.84	–	3.08
298.15 K	–	53.62	32.83	19.16	13.06	–	–	2.75
303.15 K	86.8	43.08	26.28	–	11.34	6.71	4.28	–
308.15 K	–	35.32	–	13.73	9.83	–	3.76	2.31
313.15 K	–	–	17.78	11.88	9.05	5	3.38	2.13
318.15 K	38.81	–	15.48	10.26	8.02	4.49	3.08	–
323.15 K	32.11	20.84	14.06	8.91	6.96	4.04	2.81	1.75
328.15 K	26.9	17.9	12.51	–	6.08	3.7	2.57	1.65
333.15 K	22.91	–	10.88	7.7	5.49	3.39	2.38	1.59

CCCC[n+]1ccn(C)c1.O=[N+]([O-])[O-] + CCCO
viscosity [mPa·s]
Conditions	x2 = 0.121	x2 = 0.257	x2 = 0.364	x2 = 0.471	x2 = 0.554	x2 = 0.673	x2 = 0.755	x2 = 0.857
283.15 K	243	125.8	72.5	42.71	27.88	15.61	10.26	6.16
288.15 K	–	95.7	56.76	–	23	13.2	8.83	5.29
293.15 K	130.9	68.2	45.1	28.35	19.19	–	7.6	4.64
298.15 K	99.8	53.67	36.43	23.48	16.29	–	6.56	4.05
303.15 K	74	43.04	29.92	19.71	13.94	8.54	5.77	3.59
308.15 K	58.48	35.02	24.93	–	12.03	7.43	5.04	3.21
313.15 K	47.07	28.93	–	14.44	10.5	6.49	4.49	2.87
318.15 K	38.59	24.21	17.89	–	–	5.78	3.97	2.59
323.15 K	–	20.58	15.41	–	8.16	5.09	3.58	2.35
328.15 K	26.75	17.65	13.41	–	7.2	4.58	–	–
333.15 K	22.73	15.31	11.77	8.61	–	4.14	2.94	1.96

CCCC[n+]1ccn(C)c1.O=[N+]([O-])[O-] + CCCCO
viscosity [mPa·s]
Conditions	x2 = 0.129	x2 = 0.26	x2 = 0.361	x2 = 0.456	x2 = 0.565	x2 = 0.65	x2 = 0.753	x2 = 0.848
283.15 K	232	125	75.5	–	29	19.86	11.42	7.82
288.15 K	170.6	–	58.8	38.34	–	16.11	9.74	6.78
293.15 K	126.9	68.4	46.54	31.1	–	13.67	8.41	–
298.15 K	–	53.94	37.64	–	–	11.74	7.28	5.12
303.15 K	70.8	–	30.76	21.48	–	10.17	6.35	4.52
308.15 K	–	–	25.6	18.23	12.37	–	–	3.98
313.15 K	45.28	29.24	–	15.59	–	–	–	3.56
318.15 K	37.11	–	18.41	13.52	–	6.94	4.38	3.19
323.15 K	30.72	20.83	–	11.81	8.33	6.15	–	2.87
328.15 K	25.86	17.89	13.75	10.37	7.37	5.52	3.5	2.6
333.15 K	21.95	15.46	–	9.18	–	4.93	3.17	2.37
